Data set [1] can be described thus: Intrinsic solubility of drug. In kind it is physicochemical. From the text: (§1) J. Pharm 302(2005), 18-28 and S. I. F. Badaway et al, Int. J. Pharmaceut.128(1996), 45-54.
Data set [2] is described as follows: Solubility in Example 7 formulation (hydrogel in 50:50 wt % water/ethanol). The note with it: 50:50 wt % water/ethanol with polyvinylalcohol and butylidene polymer; for solubility: aqueous with cosolvent or surfactant or cyclodextrin. The data set is classed as physicochemical.
Source text: As an alternative to the general procedure described in Example 2 and the procedures described in other examples, a solvent may comprise a 50:50 wt % water/ethanol solution. The polyvinylalcohol and butylidene polymer may be included in such a solvent and the mixture may then be acidified to a pH of not less than 2.5 to cause polyvinylalcohol and butylidene polymer to react in an acid catalysed reaction. A drug of low solubility may then be added to the mixture as described in the other examples.
as §1

Data set [3] can be described thus: Solubility in 10% w/v hydroxypropyl cyclodextrin solution. The note with it: for solubility: 10% w/v hydroxypropyl cyclodextrin solution, aqueous with cosolvent or surfactant or cyclodextrin, read-out: Solubility in 10% w/v Hydroxypropyl Cyclodextrin soln. The data set is classed as physicochemical.
Source text: as §1

Data set [4] in a line: physchem. The settings on record: pH 2.5, aqueous with cosolvent or surfactant or cyclodextrin, thermodynamic from solid.
Data set [5] can be described thus: Time for solid drug to dissolve in acidified hydrogel mixture at ambient temperature with stirring. In kind it is physicochemical. The note with it: 0.2 wt % drug in 0.5 wt % hydrogel, pH about 2.5, ambient temperature. The method, then:
A 0.5 wt % formulation of a hydrogel was prepared comprising Poval 220 polyvinylalcohol and the butylidene polymer of Example 1 in the weight ratio 10:1. The pH of the mixture was lowered to about 2.5 by addition of hydrochloric acid and, with the pH at the lowered level, doxorubicin, a solid red powder, was added at ambient temperature with stirring to give a level of 0.2 wt % doxorubicin in the mixture. […] After the formulation has been prepared, the pH may be raised to about 7 by addition of alkali to neutralise it.
A 2 wt % formulation of a hydrogel was prepared comprising KH-20 polyvinylalcohol and the butylidene polymer of Example 1 in a weight ratio 10:1. The pH of the mixture was lowered to about 2.5, by addition of hydrochloric acid. Then, doxycycline, in a solid form, was added at ambient temperature with stirring to give a level of 0.5 wt % of doxycycline in the mixture. The doxycycline appeared to dissolve in the water within about 15 minutes to give a clear pale yellow mixture which appeared to comprise a solution but more likely comprises complexed doxycycline.

For data set [6] the following is noted: aqueous formulation, Poval 220 polyvinylalcohol/butylidene polymer hydrogel (Example 3 process).

Converted amounts (≈) assume the structure as drawn.

For `Clc1ccccc1C(c1ccccc1)(c1ccccc1)n1ccnc1` [Clotrimazole], in data set [1], the “Intrinsic Solubility” value was found to be 70 µg/mL. Moreover, the solubility in data set [2] was found to be 11800 µg/mL (≈ 34.2 mM); in data set [3] it was 1210 µg/mL (≈ 3.51 mM).

On to `Clc1ccc(COC(Cn2ccnc2)c2ccc(Cl)cc2Cl)cc1` (stereo not drawn) [Econazole], for which the solubility in data set [1] is 370 µg/mL (≈ 0.969 mM); in data set [2], 12600 µg/mL (≈ 33 mM); in data set [3], 4990 µg/mL (≈ 13.1 mM).

On to `Clc1ccc(COC(Cn2ccnc2)c2ccc(Cl)cc2Cl)c(Cl)c1` (stereo not drawn) [Miconazole], for which the solubility was determined as 90 µg/mL (≈ 0.216 mM) in data set [1], 4700 µg/mL (≈ 11.3 mM) in data set [2] and 2460 µg/mL (≈ 5.91 mM) in data set [3].

For `CC(C)c1cccc(C(C)C)c1O` [Propafol], in data set [1], the “Intrinsic Solubility” value worked out at 160 µg/mL. Moreover, in data set [2], the “Example 7 formulation (solubility)” value was 34800 µg/mL. Moreover, in data set [3], the “Solubility in 10% w/v Hydroxypropyl Cyclodextrin soln.” value is 7690 µg/mL (≈ 43.1 mM).

In data set [4], `COc1cccc2c1C(=O)c1c(O)c3c(c(O)c1C2=O)C[C@@](O)(C(=O)CO)C[C@@H]3O[C@H]1C[C@H](N)[C@H](O)[C@H](C)O1` [doxorubicin] showed a solubility of 115000 µg/mL (≈ 212 mM). Besides, the “appeared to dissolve in the water (time)” value in data set [5] was “substantially instantaneously”. Further, the saturation solubility in data set [6] worked out at 11.5 % w/v.
